Bounds are passed on as bounds.

For the assay, the target named is T1, recombinant human Syk (GST-hSyk fusion protein) (Homo sapiens, UniProt P43405).
T1 construct: purchased Carna Biosciences 08-176
Description: Homogeneous Time-Resolved Fluorescence (HTRF) assay for the recombinant human Syk enzyme. The format is biochemical. The following applies: IC50 class; 10-dose titration, 25 μM ATP; read-out: rhSYK Activity. The gist of the method: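 GST-hSyk (5 pM) preincubated 10 min with compound (0.1% DMSO) in 15 mM Tris-HCl pH 7.5, 2 mM DTT; reaction started with 250 nM biotinylated peptide, 5 mM Mg, 25 μM ATP, 45 min, room temperature. EDTA quench, Eu-anti-phosphotyrosine/SA-APC HTRF read after 30 min; IC50 from 10-dose titration (10 μM–0.508 nM), four-parameter fit.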
A general note: TR-FRET usually uses a lanthanide donor and a delayed reading to cut background.
Turning to `CCOC(=O)CCn1cc(-c2cc(C)cc(Nc3nccc(C4CC4)n3)c2)cn1` [Example 2.41, ethyl 3-(4-{3-[(4-cyclopropylpyrimidin-2-yl)amino]-5-methylphenyl}-1H-pyrazol-1-yl)propanoate], the IC50 was below 1000 nM.

In the case of `CCOC(=O)CCn1cc(-c2cc(C)cc(Nc3nccc(C)n3)c2)cn1` [Example 2.42, ethyl 3-(4-{3-methyl-5-[(4-methylpyrimidin-2-yl)amino]phenyl}-1H-pyrazol-1-yl)propanoate], the IC50 was at most 100 nM.

As for `CCOC(=O)CCn1cc(-c2cc(C)cc(Nc3nccc(C(F)(F)F)n3)c2)cn1` [Example 2.43, ethyl 3-[4-(3-methyl-5-{[4-(trifluoromethyl)pyrimidin-2-yl]amino}phenyl)-1H-pyrazol-1-yl]propanoate], the IC50 was at most 100 nM.

As for `Cc1cc(Nc2nccc(C)n2)cc(-c2cnn(CCC(=O)O)c2)c1` [Example 2.44, 3-(4-{3-methyl-5-[(4-methylpyrimidin-2-yl)amino]phenyl}-1H-pyrazol-1-yl)propanoic acid], the IC50 is at most 100 nM.

As to `Cc1cc(Nc2nccc(C(F)(F)F)n2)cc(-c2cnn(CC3CNC(=O)O3)c2)c1` (stereo not drawn) [Example 2.45, 5-{[4-(3-methyl-5-{[4-(trifluoromethyl)-pyrimidin-2-yl]amino}phenyl)-1H-pyrazol-1-yl]methyl}-1,3-oxazolidin-2-one], the IC50 was at most 100 nM.

Regarding `Cc1cc(Nc2nccc(C(F)(F)F)n2)cc(-c2ccn(C)n2)c1` [Example 2.46, N-[3-methyl-5-(1-methyl-1H-pyrazol-3-yl)phenyl]-4-(trifluoromethyl)-pyrimidin-2-amine], the IC50 was at most 100 nM.

For the molecule `Cc1cc(Nc2nccc(C(F)(F)F)n2)cc(-c2n[nH]c3ccccc23)c1` [Example 2.47, N-[3-(1H-indazol-3-yl)-5-methylphenyl]-4-(trifluoromethyl)-pyrimidin-2-amine], the IC50 fell in the range of 100 to 1000 nM.

With `Cc1cc(Nc2ncccn2)cc(-c2cnn(Cc3ccc(C(N)=O)cc3)c2)c1` [Example 2.57, 4-({4-[3-methyl-5-(pyrimidin-2-ylamino)phenyl]-1H-pyrazol-1-yl}methyl)benzamide], the IC50 is at most 100 nM.

For `Cc1cc(Nc2ncccn2)cc(-c2cnn(Cc3ccc(O)cc3)c2)c1` [Example 2.58, 4-({4-[3-methyl-5-(pyrimidin-2-ylamino)phenyl]-1H-pyrazol-1-yl}methyl)phenol], the IC50 was at most 100 nM.

`Cc1cc(Nc2nccc(C(F)(F)F)n2)cc(-c2cnn(C3CCC(C(=O)O)C(C)(C)C3)c2)c1` (stereo not drawn) [Example 2.59, 2,2-dimethyl-4-[4-(3-methyl-5-{[4-(trifluoromethyl)pyrimidin-2-yl]amino}phenyl)-1H-pyrazol-1-yl]cyclohexanecarboxylic acid]: the IC50 is at most 100 nM.

With `Cc1cc(Nc2nccc(C(F)F)n2)cc(-c2cnn(C3CCC(C(=O)O)CC3)c2)c1` (stereo not drawn) [Example 2.60, 4-[4-(3-{[4-(difluoromethyl)pyrimidin-2-yl]amino}-5-methylphenyl)-1H-pyrazol-1-yl]cyclohexanecarboxylic acid], the IC50 was at most 100 nM.

Consider `Cc1cc(Nc2nccc(C(F)F)n2)cc(-c2cnn([C@H]3CC[C@H](C(=O)O)CC3)c2)c1` [Example 2.61, trans-4-[4-(3-{[4-(difluoromethyl)pyrimidin-2-yl]amino}-5-methylphenyl)-1H-pyrazol-1-yl]cyclohexanecarboxylic acid], for which the IC50 was at most 100 nM.

`Cc1cc(Nc2nccc(C(F)F)n2)cc(-c2cnn(CC3CNC(=O)O3)c2)c1` (stereo not drawn) [Example 2.63, 5-{[4-(3-{[4-(difluoromethyl)pyrimidin-2-yl]amino}-5-methylphenyl)-1H-pyrazol-1-yl]methyl}-1,3-oxazolidin-2-one]: the IC50 is at most 100 nM.

On to `Cc1cc(Nc2nccc(C(F)F)n2)cc(-c2cnn(CC3CNC(=O)O3)c2)c1` (stereo not drawn) [Example 2.64, 5-{[4-(3-{[4-(difluoromethyl)pyrimidin-2-yl]amino}-5-methylphenyl)-1H-pyrazol-1-yl]methyl}-1,3-oxazolidin-2-one], for which the IC50 was at most 100 nM.

For the molecule `O=C1NCC(Cn2cc(-c3cccc(Nc4nccc(C(F)F)n4)c3)cn2)O1` (stereo not drawn) [Example 2.65, 5-{[4-(3-{[4-(difluoromethyl)pyrimidin-2-yl]amino}phenyl)-1H-pyrazol-1-yl]methyl}-1,3-oxazolidin-2-one], the IC50 is at most 100 nM.

As for `O=C1NCC(Cn2cc(-c3cccc(Nc4nccc(C(F)F)n4)c3)cn2)O1` (stereo not drawn) [Example 2.66, 5-{[4-(3-{[4-(difluoromethyl)pyrimidin-2-yl]amino}phenyl)-1H-pyrazol-1-yl]methyl}-1,3-oxazolidin-2-one], the IC50 is at most 100 nM.

On to `Cc1cc(Nc2nccc(C(F)F)n2)cc(-c2cnn(C(C)C3CNC(=O)C3)c2)c1` (stereo not drawn) [Example 2.67, 4-{1-[4-(3-{[4-(difluoromethyl)pyrimidin-2-yl]amino}-5-methylphenyl)-1H-pyrazol-1-yl]ethyl}pyrrolidin-2-one], for which the IC50 is at most 100 nM.

Take `Cc1cc(Nc2nccc(C(F)F)n2)cc(-c2cnn(C(C)C3CNC(=O)C3)c2)c1` (stereo not drawn) [Example 2.68, 4-{1-[4-(3-{[4-(difluoromethyl)pyrimidin-2-yl]amino}-5-methylphenyl)-1H-pyrazol-1-yl]ethyl}pyrrolidin-2-one]: the IC50 was at most 100 nM.

As for `Cc1cc(Nc2nccc(C(F)F)n2)cc(-c2cnn(C(C)C3CNC(=O)C3)c2)c1` (stereo not drawn) [Example 2.69, 4-{1-[4-(3-{[4-(difluoromethyl)pyrimidin-2-yl]amino}-5-methylphenyl)-1H-pyrazol-1-yl]ethyl}pyrrolidin-2-one], the IC50 is at most 100 nM.

In the case of `Cc1cc(Nc2nccc(C(F)F)n2)cc(-c2cnn(C(C)C3CNC(=O)C3)c2)c1` (stereo not drawn) [Example 2.70, 4-{1-[4-(3-{[4-(difluoromethyl)pyrimidin-2-yl]amino}-5-methylphenyl)-1H-pyrazol-1-yl]ethyl}pyrrolidin-2-one], the IC50 is at most 100 nM.

As for `Cc1cc(Nc2nccc(C(F)F)n2)cc(-c2cnn(CC3CC(=O)NC3=O)c2)c1` (stereo not drawn) [Example 2.71, 3-{[4-(3-{[4-(difluoromethyl)pyrimidin-2-yl]amino}-5-methylphenyl)-1H-pyrazol-1-yl]methyl}pyrrolidine-2,5-dione], the IC50 is at most 100 nM.

On to `Cc1cc(Nc2nccc(C(F)F)n2)cc(-c2cnn(Cc3cc[nH]c(=O)c3)c2)c1` [Example 2.72, 4-{[4-(3-{[4-(difluoromethyl)pyrimidin-2-yl]amino}-5-methylphenyl)-1H-pyrazol-1-yl]methyl}pyridin-2(1H)-one], for which the IC50 was at most 100 nM.

As for `Cc1cc(Nc2nccc(C(F)F)n2)cc(-c2cnn(CC3CC(=O)NC3=O)c2)c1` (stereo not drawn) [Example 2.73, 3-{[4-(3-{[4-(difluoromethyl)pyrimidin-2-yl]amino}-5-methylphenyl)-1H-pyrazol-1-yl]methyl}pyrrolidine-2,5-dione], the IC50 is at most 100 nM.

As for `Cc1cc(Nc2nccc(C(F)F)n2)cc(-c2cnn(CC3OC(=O)NC3=O)c2)c1` (stereo not drawn) [Example 2.74, 5-{[4-(3-{[4-(difluoromethyl)pyrimidin-2-yl]amino}-5-methylphenyl)-1H-pyrazol-1-yl]methyl}-1,3-oxazolidine-2,4-dione], the IC50 was at most 100 nM.

Regarding `Cc1cc(Nc2nccc(C(F)F)n2)cc(-c2cnn(CC3OC(=O)NC3=O)c2)c1` (stereo not drawn) [Example 2.75, 5-{[4-(3-{[4-(difluoromethyl)pyrimidin-2-yl]amino}-5-methylphenyl)-1H-pyrazol-1-yl]methyl}-1,3-oxazolidine-2,4-dione], the IC50 was at most 100 nM.

As to `Cc1cc(Nc2nccc(C(F)F)n2)cc(-c2cnn(CC3CC(=O)NC3C)c2)c1` (stereo not drawn) [Example 2.76, 4-{[4-(3-{[4-(difluoromethyl)pyrimidin-2-yl]amino}-5-methylphenyl)-1H-pyrazol-1-yl]methyl}-5-methylpyrrolidin-2-one], the IC50 is at most 100 nM.

For `Cc1cc(Nc2nccc(C(F)F)n2)cc(-c2cnn(CC3(C)CNC(=O)C3)c2)c1` (stereo not drawn) [Example 2.77, 4-{[4-(3-{[4-(difluoromethyl)pyrimidin-2-yl]amino}-5-methylphenyl)-1H-pyrazol-1-yl]methyl}-4-methylpyrrolidin-2-one], the IC50 was at most 100 nM.

As to `Cc1cc(Nc2nccc(C(F)F)n2)cc(-c2cnn(CC3CCNC(=O)O3)c2)c1` (stereo not drawn) [Example 2.78, 6-{[4-(3-{[4-(difluoromethyl)pyrimidin-2-yl]amino}-5-methylphenyl)-1H-pyrazol-1-yl]methyl}-1,3-oxazinan-2-one], the IC50 is at most 100 nM.

Consider `Cc1cc(Nc2nccc(C(F)F)n2)cc(-c2cnn(CC3CC(=O)NC3C)c2)c1` (stereo not drawn) [Example 2.79, 4-{[4-(3-{[4-(difluoromethyl)pyrimidin-2-yl]amino}-5-methylphenyl)-1H-pyrazol-1-yl]methyl}-5-methylpyrrolidin-2-one], for which the IC50 was at most 100 nM.

In the case of `Cc1cc(Nc2nccc(C(F)F)n2)cc(-c2cnn(CC3(C)CNC(=O)C3)c2)c1` (stereo not drawn) [Example 2.80, 4-{[4-(3-{[4-(difluoromethyl)pyrimidin-2-yl]amino}-5-methylphenyl)-1H-pyrazol-1-yl]methyl}-4-methylpyrrolidin-2-one], the IC50 was at most 100 nM.

Turning to `Cc1cc(Nc2nccc(C(F)F)n2)cc(-c2cnn(CC3CCNC(=O)O3)c2)c1` (stereo not drawn) [Example 2.81, 6-{[4-(3-{[4-(difluoromethyl)pyrimidin-2-yl]amino}-5-methylphenyl)-1H-pyrazol-1-yl]methyl}-1,3-oxazinan-2-one], the IC50 is at most 100 nM.

On to `Cc1cc(Nc2nccc(C(F)F)n2)cc(-c2cnn(CCN)c2)c1` [Example 2.82, N-{3-[1-(2-aminoethyl)-1H-pyrazol-4-yl]-5-methylphenyl}-4-(difluoromethyl)pyrimidin-2-amine], for which the IC50 is at most 100 nM.

In the case of `Cc1cc(Nc2nccc(C(F)F)n2)cc(-c2cnn(C[C@@H]3CNCCO3)c2)c1` [Example 2.83, 4-(difluoromethyl)-N-(3-methyl-5-{1-[(2S)-morpholin-2-ylmethyl]-1H-pyrazol-4-yl}phenyl)pyrimidin-2-amine], the IC50 is at most 100 nM.

(Values after patent publication US9242984B2, “Pyrazolyl derivatives as Syk inhibitors” (Merck Sharp & Dohme Corp., priority 2012, dated 2016).)
